Laboratory results as given in patent publication US12091411B2, “IRAK degraders and uses thereof” (Kymera Therapeutics, Inc., priority 2022, dated 2024).
Read-outs that look alike come from different tables or passages of the source.

Target: T1, IRAK4 (Homo sapiens, UniProt Q9NWZ3)
T1 construct: Degradation of IRAK4 in OCI-LY10 was quantitatively measured using Meso Scale Discovery technology; endogenous in cells; host or cells: OCI-LY10
T1 sequence (Q9NWZ3 1-460): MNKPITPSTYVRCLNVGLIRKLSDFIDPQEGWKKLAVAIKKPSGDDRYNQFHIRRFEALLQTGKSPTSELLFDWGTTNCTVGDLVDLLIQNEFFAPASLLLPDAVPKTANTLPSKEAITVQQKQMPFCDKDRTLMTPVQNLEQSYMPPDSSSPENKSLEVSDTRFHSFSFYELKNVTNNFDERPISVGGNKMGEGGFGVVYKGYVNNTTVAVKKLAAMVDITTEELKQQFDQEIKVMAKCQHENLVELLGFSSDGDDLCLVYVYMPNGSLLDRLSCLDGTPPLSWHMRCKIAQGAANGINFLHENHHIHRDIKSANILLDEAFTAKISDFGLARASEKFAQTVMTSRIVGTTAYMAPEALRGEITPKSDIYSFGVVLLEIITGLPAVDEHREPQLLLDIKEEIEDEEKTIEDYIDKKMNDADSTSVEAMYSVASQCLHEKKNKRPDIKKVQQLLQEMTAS
Assay: IRAK4 MSD Degradation in OCI-LY10
Type: cell-based
Settings: OCI-LY10 cells, MSD
Outline: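 OCI-LY10 cells exposed to 8-point 1:3 compound series (top 1 to 10 μM) for 4 to 24 h at 37 °C, 5% CO2. Lysate IRAK4 quantified by MSD sandwich immunoassay. DC50 from three-parameter logistic fit, binned A (<0.01 μM) to D (>0.2 μM or not tested).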

[1] = 4 hrs incubation, read-out: IRAK4 degradation in OCI-LY10 at 4 hrs: DC50
[2] = 24 hrs incubation, read-out: IRAK4 degradation in OCI-LY10 at 24 hrs: DC50

Compound | DC50 [1] | DC50 [2]
Cn1c(=O)n(C2CCC(=O)NC2=O)c2cccc(N3CCC(N(C[C@H]4CC[C@H](n5cc(NC(=O)c6cnn7cccnc67)c(C(F)F)n5)CC4)C(F)(F)F)CC3)c21 (stereo partly shown) [I-368] | > 200 nM | > 200 nM
Cn1c(=O)n(C2CCC(=O)NC2=O)c2cccc(C#CCN3CCN(Cc4ccc(-n5cc(NC(=O)c6cnn7ccc(N8C[C@H]9C[C@@H]8CO9)nc67)c(C(F)F)n5)cc4)CC3)c21 (stereo partly shown) [I-369] | < 10 nM | > 200 nM
Cn1c(=O)n(C2CCC(=O)NC2=O)c2cccc(C#CCOC3CCN(Cc4ccc(-n5cc(NC(=O)c6cnn7ccc(N8C[C@H]9C[C@@H]8CO9)nc67)c(C(F)F)n5)cc4)CC3)c21 (stereo partly shown) [I-370] | 10 to 100 nM | > 200 nM
CN(CC1CCN(c2cccc3c2n(C)c(=O)n3C2CCC(=O)NC2=O)CC1)c1ccc(-n2cc(NC(=O)c3cnn4cccnc34)c(C(F)F)n2)cc1 (stereo not shown) [I-373] | > 200 nM | > 200 nM
CN(C[C@H]1CC[C@H](n2cc(NC(=O)c3cnn4cccnc34)c(C(F)F)n2)CC1)C1CCN(c2cccc3c2n(C)c(=O)n3C2CCC(=O)NC2=O)CC1(F)F (stereo partly shown) [I-376] | > 200 nM | > 200 nM
CN(Cc1ccc(-n2cc(NC(=O)c3cnn4cccnc34)c(C(F)F)n2)cc1)C1CCN(c2cccc3c2n(C)c(=O)n3C2CCC(=O)NC2=O)CC1(F)F (stereo not shown) [I-377] | > 200 nM | > 200 nM
CN(C[C@H]1CC[C@H](n2cc(NC(=O)c3cnn4cccnc34)c(C(F)F)n2)CC1)c1ccc(-c2cccc3c2n(C)c(=O)n3C2CCC(=O)NC2=O)cc1 (stereo partly shown) [I-378] | > 200 nM | > 200 nM
Cn1c(=O)n(C2CCC(=O)NC2=O)c2cccc(C[C@H]3CN(Cc4ccc(-n5cc(NC(=O)c6cnn7cccnc67)c(C(F)F)n5)cc4)CCO3)c21 (stereo partly shown) [I-382] | > 200 nM | > 200 nM
Cn1c(=O)n(C2CCC(=O)NC2=O)c2cccc(CC[C@H]3CN(Cc4ccc(-n5cc(NC(=O)c6cnn7ccc(N8C[C@H]9C[C@@H]8CO9)nc67)c(C(F)F)n5)cc4)CCO3)c21 (stereo partly shown) [I-386] | > 200 nM | > 200 nM
Cn1c(=O)n(C2CCC(=O)NC2=O)c2cccc(CC[C@H]3CN(Cc4ccc(-n5cc(NC(=O)c6cnn7cccnc67)c(C(F)F)n5)cc4)CCO3)c21 (stereo partly shown) [I-388] | > 200 nM | > 200 nM
Cn1c(=O)n(C2CCC(=O)NC2=O)c2cccc(C[C@@H]3CN(Cc4ccc(-n5cc(NC(=O)c6cnn7cccnc67)c(C(F)F)n5)cc4)CCO3)c21 (stereo partly shown) [I-392] | > 200 nM | > 200 nM
Cn1c(=O)n(C2CCC(=O)NC2=O)c2cccc(CC[C@@H]3CN(Cc4ccc(-n5cc(NC(=O)c6cnn7ccc(N8C[C@H]9C[C@@H]8CO9)nc67)c(C(F)F)n5)cc4)CCO3)c21 (stereo partly shown) [I-396] | > 200 nM | > 200 nM
Cn1c(=O)n(C2CCC(=O)NC2=O)c2cccc(CC[C@@H]3CN(Cc4ccc(-n5cc(NC(=O)c6cnn7cccnc67)c(C(F)F)n5)cc4)CCO3)c21 (stereo partly shown) [I-398] | > 200 nM | > 200 nM
Cn1c(=O)n(C2CCC(=O)NC2=O)c2cccc(N3CCC4(CC3)CN(Cc3ccc(-n5cc(NC(=O)c6cnn7cccnc67)c(C(F)F)n5)cc3)C4)c21 (stereo not shown) [I-399] | < 10 nM | > 200 nM
Cn1c(=O)n(C2CCC(=O)NC2=O)c2cccc(N3CC4(CCN(Cc5ccc(-n6cc(NC(=O)c7cnn8ccc(N9C[C@H]%10C[C@@H]9CO%10)nc78)c(C(F)F)n6)cc5)CC4)C3)c21 (stereo partly shown) [I-400] | 10 to 100 nM | > 200 nM
Cn1c(=O)n(C2CCC(=O)NC2=O)c2cccc(OC3CC4(CCN(Cc5ccc(-n6cc(NC(=O)c7cnn8ccc(N9C[C@H]%10C[C@@H]9CO%10)nc78)c(C(F)F)n6)cc5)CC4)C3)c21 (stereo partly shown) [I-401] | > 200 nM | > 200 nM
Cn1c(=O)n(C2CCC(=O)NC2=O)c2cccc(CN3CC4(CCN(Cc5ccc(-n6cc(NC(=O)c7cnn8ccc(N9C[C@H]%10C[C@@H]9CO%10)nc78)c(C(F)F)n6)cc5)CC4)C3)c21 (stereo partly shown) [I-402] | > 200 nM | > 200 nM

Other lines, results leading:

DC50 [1] | DC50 [2] | Compound
> 200 nM | > 200 nM | Cn1c(=O)n(C2CCC(=O)NC2=O)c2cccc(N3CC[C@H](CN4CCN(C[C@H]5CC[C@H](n6cc(NC(=O)c7cnn8ccc(N9C[C@H]%10C[C@@H]9CO%10)nc78)c(C(F)F)n6)CC5)CC4)C3)c21 (stereo partly shown) [I-364]
> 200 nM | > 200 nM | Cn1c(=O)n(C2CCC(=O)NC2=O)c2cccc(N3CCN([C@@H]4CCN(C[C@H]5CC[C@H](n6cc(NC(=O)c7cnn8ccc(N9C[C@H]%10C[C@@H]9CO%10)nc78)c(C(F)F)n6)CC5)CC4(F)F)CC3)c21 (stereo partly shown) [I-365]
> 200 nM | > 200 nM | Cn1c(=O)n(C2CCC(=O)NC2=O)c2cccc(N3CCN([C@H]4CCN(C[C@H]5CC[C@H](n6cc(NC(=O)c7cnn8ccc(N9C[C@H]%10C[C@@H]9CO%10)nc78)c(C(F)F)n6)CC5)CC4(F)F)CC3)c21 (stereo partly shown) [I-366]
> 200 nM | > 200 nM | Cn1c(=O)n(C2CCC(=O)NC2=O)c2cccc(N3CCC(N4CCN(C[C@H]5CC[C@H](n6cc(NC(=O)c7cnn8ccc(N9C[C@H]%10C[C@@H]9CO%10)nc78)c(C(F)F)n6)CC5)CC4)CC3)c21 (stereo partly shown) [I-367]
> 200 nM | > 200 nM | Cn1c(=O)n(C2CCC(=O)NC2=O)c2cccc(C#CCOc3ccc(CN4CCC(n5cc(NC(=O)c6cnn7ccc(N8CC9C[C@@H]8CO9)nc67)c(C(F)F)n5)CC4)cc3)c21 (stereo partly shown) [I-371]
> 200 nM | > 200 nM | Cn1c(=O)n(C2CCC(=O)NC2=O)c2cccc(C#CCc3ccc(CN4CCC(n5cc(NC(=O)c6cnn7ccc(N8CC9C[C@@H]8CO9)nc67)c(C(F)F)n5)CC4)cc3)c21 (stereo partly shown) [I-372]
10 to 100 nM | > 200 nM | Cn1c(=O)n(C2CCC(=O)NC2=O)c2cccc(C#CCC3CCN(C[C@H]4CC[C@H](n5cc(NC(=O)c6cnn7ccc(N8C[C@H]9C[C@@H]8CO9)nc67)c(C(F)F)n5)CC4)CC3(F)F)c21 (stereo partly shown) [I-374]
> 200 nM | > 200 nM | Cn1c(=O)n(C2CCC(=O)NC2=O)c2cccc(C#CCN3CCC(C[C@H]4CC[C@H](n5cc(NC(=O)c6cnn7ccc(N8C[C@H]9C[C@@H]8CO9)nc67)c(C(F)F)n5)CC4)C(F)(F)C3)c21 (stereo partly shown) [I-375]
> 200 nM | > 200 nM | Cn1c(=O)n(C2CCC(=O)NC2=O)c2cccc(C#CC[C@H]3CN(CC4CCC(n5cc(NC(=O)c6cnn7ccc(N8C[C@H]9C[C@@H]8CO9)nc67)c(C(F)F)n5)CC4)CCO3)c21 (stereo partly shown) [I-379]
> 200 nM | > 200 nM | Cn1c(=O)n(C2CCC(=O)NC2=O)c2cccc(C#CC[C@H]3CN(Cc4ccc(-n5cc(NC(=O)c6cnn7ccc(N8C[C@H]9C[C@@H]8CO9)nc67)c(C(F)F)n5)cc4)CCO3)c21 (stereo partly shown) [I-380]
> 200 nM | > 200 nM | Cn1c(=O)n(C2CCC(=O)NC2=O)c2cccc(C[C@H]3CN(C[C@H]4CC[C@H](n5cc(NC(=O)c6cnn7cccnc67)c(C(F)F)n5)CC4)CCO3)c21 (stereo partly shown) [I-381]
> 200 nM | > 200 nM | Cn1c(=O)n(C2CCC(=O)NC2=O)c2cccc(C[C@H]3CN(Cc4ccc(-n5cc(NC(=O)c6cnn7ccc(N8C[C@H]9C[C@@H]8CO9)nc67)c(C(F)F)n5)cc4)CCO3)c21 (stereo partly shown) [I-384]
< 10 nM | > 200 nM | Cn1c(=O)n(C2CCC(=O)NC2=O)c2cccc(CC[C@H]3CN(C[C@H]4CC[C@H](n5cc(NC(=O)c6cnn7ccc(N8C[C@H]9C[C@@H]8CO9)nc67)c(C(F)F)n5)CC4)CCO3)c21 (stereo partly shown) [I-385]
< 10 nM | > 200 nM | Cn1c(=O)n(C2CCC(=O)NC2=O)c2cccc(CC[C@H]3CN(C[C@H]4CC[C@H](n5cc(NC(=O)c6cnn7cccnc67)c(C(F)F)n5)CC4)CCO3)c21 (stereo partly shown) [I-387]
10 to 100 nM | > 200 nM | Cn1c(=O)n(C2CCC(=O)NC2=O)c2cccc(C#CC[C@@H]3CN(C[C@H]4CC[C@H](n5cc(NC(=O)c6cnn7ccc(N8C[C@H]9C[C@@H]8CO9)nc67)c(C(F)F)n5)CC4)CCO3)c21 (stereo partly shown) [I-389]
> 200 nM | > 200 nM | Cn1c(=O)n(C2CCC(=O)NC2=O)c2cccc(C#CC[C@@H]3CN(Cc4ccc(-n5cc(NC(=O)c6cnn7ccc(N8C[C@H]9C[C@@H]8CO9)nc67)c(C(F)F)n5)cc4)CCO3)c21 (stereo partly shown) [I-390]
> 200 nM | > 200 nM | Cn1c(=O)n(C2CCC(=O)NC2=O)c2cccc(C[C@@H]3CN(C[C@H]4CC[C@H](n5cc(NC(=O)c6cnn7cccnc67)c(C(F)F)n5)CC4)CCO3)c21 (stereo partly shown) [I-391]
> 200 nM | > 200 nM | Cn1c(=O)n(C2CCC(=O)NC2=O)c2cccc(C[C@@H]3CN(C[C@H]4CC[C@H](n5cc(NC(=O)c6cnn7ccc(N8C[C@H]9C[C@@H]8CO9)nc67)c(C(F)F)n5)CC4)CCO3)c21 (stereo partly shown) [I-393]
> 200 nM | > 200 nM | Cn1c(=O)n(C2CCC(=O)NC2=O)c2cccc(C[C@@H]3CN(Cc4ccc(-n5cc(NC(=O)c6cnn7ccc(N8C[C@H]9C[C@@H]8CO9)nc67)c(C(F)F)n5)cc4)CCO3)c21 (stereo partly shown) [I-394]
> 200 nM | > 200 nM | Cn1c(=O)n(C2CCC(=O)NC2=O)c2cccc(CC[C@@H]3CN(C[C@H]4CC[C@H](n5cc(NC(=O)c6cnn7ccc(N8C[C@H]9C[C@@H]8CO9)nc67)c(C(F)F)n5)CC4)CCO3)c21 (stereo partly shown) [I-395]
> 200 nM | > 200 nM | Cn1c(=O)n(C2CCC(=O)NC2=O)c2cccc(CC[C@@H]3CN(C[C@H]4CC[C@H](n5cc(NC(=O)c6cnn7cccnc67)c(C(F)F)n5)CC4)CCO3)c21 (stereo partly shown) [I-397]
